EP1145714A1, “DRUGS” (Takeda Chemical Industries, Ltd., priority 1998, dated 2000)

Tests used:
[1] = tested on: cisplatin-induced acute vomiting in dogs; experiment: Cisplatin-induced acute vomiting in dogs, compound orally given; type: in vivo, beagle dogs; conditions: cisplatin 3 mg/kg i.v.; for Duration of vomiting (in hour;, mean ± SD) / Frequency of vomiting (mean ± SD) / Number of dogs with vomiting/number of tested dogs / Time period until first vomiting (in hour;, mean ± SD): 5 hours
Procedure: 3 or 4 beagle dogs (7.9 to 13.3 kg), male or female, were used per one group. Cisplatin was intravenously administered at 3 mg/3 ml/kg. One hour before cisplatin dosing, a small volume of a feed was given to the animals. 30 minutes before cisplatin administration, predetermined doses of the compound No. 3 were orally given. Similarly, 0.5 % methyl cellulose solution was orally given to the control animals under no fasting. The frequency of vomiting was counted in number, up to 5 hours after cisplatin dosing.
The compound No. 3 was suspended in 0.5 % methyl cellulose solution to predetermined concentrations, for oral dosing at a ratio of 1 ml per 1 kg body weight. Additionally, the 0.5 % methyl cellulose solution was orally given at a ratio of 1 ml per 1 kg body weight. The data relating to the frequency of vomiting, the time period (latency) until first vomiting and the time period from the occurrence of vomiting to the termination thereof were statistically analyzed by the Dunnett test, with reference to the difference from the control group.
The acute retching suppression ratio and acute vomiting suppression ratio were calculated by the following formula. [Frequency of retching or vomiting in control] - [Frequency of retching or vomiting in animals dosed with the compound No. 3] / [Frequency of retching or vomiting in control] x 100 (%) [formula]

[2] = tested on: acute vomiting induced by cisplatin in ferrets; experiment: Acute vomiting induced by cisplatin in ferrets, compound intraperitoneally given; type: in vivo; conditions: 1 mg/kg i.p., cisplatin 10 mg/kg i.p.
Procedure: 6 to 9 male ferrets (1.2 to 1.7 kg) per one group were used. Cisplatin was intraperitoneally given at 10 mg/kg. 30 minutes prior to cisplatin administration, predetermined doses of the compound No. 3 were intraperitoneally given to the animals under fasting. Similarly, PEG 400 was intraperitoneally given to a control animal group under fasting. The frequency of vomiting was counted in number, up to 5 hours after cisplatin administration.
The compound No. 3 was dissolved in PEG 400, for intraperitoneal dosing at a ratio of 1 ml per 1 kg body weight. Additionally, PEG 400 was intraperitoneally given at a ratio of 1 ml per 1 kg body weight. The data relating to the frequency of vomiting, the latency and the time period from the occurrence of vomiting to the termination thereof were statistically analyzed by the t test, with reference to the difference from the control group.
The acute retching suppression ratio and acute vomiting suppression ratio were determined in the same manner as in Example 1,3.

For `Cc1ccc(-c2c3n(c(=O)c4ncccc24)CC[C@@H](C)CN(Cc2cc(C(F)(F)F)cc(C(F)(F)F)c2)C3=O)cc1` [Cpd. No.3, (9R)-7-[3,5-bis(trifluoromethyl)benzyl]-6,7,8,9,10,11-hexahydro-9-methyl-5-(4-methylphenyl)-6,13-dioxo-13H-[1,4]diazocino[2,1-g][1,7]naphthylidine], the “Suppression ratio of acute vomiting” value ([1]; 1 mg/kg p.o.) was 18 % NS, the “Duration of vomiting (in hour;, mean ± SD)” value ([1]; 1 mg/kg p.o.) was 1.5 ± 0.2 h and the “Frequency of vomiting (mean ± SD)” value ([1]; 1 mg/kg p.o.) was 11.3 ± 0.5. For the same compound, the “Number of dogs with vomiting/number of tested dogs” value ([1]; 1 mg/kg p.o.) was 4/4, the “Time period until first vomiting (in hour;, mean ± SD)” value ([1]; 1 mg/kg p.o.) was 1.6 ± 0.2 h and the “Effect on cisplatin-induced vomiting (in words)” value ([1]; 3 mg/kg or higher p.o.) was “significantly suppressed”. For the same compound, the “Suppression ratio of acute vomiting” value ([1]; 3 mg/kg p.o.) was 54 % NS, the “Duration of vomiting (in hour;, mean ± SD)” value ([1]; 3 mg/kg p.o.) was 1.1 ± 0.2 h and the “Frequency of vomiting (mean ± SD)” value ([1]; 3 mg/kg p.o.) was 6.3 ± 0.8 a. The “Number of dogs with vomiting/number of tested dogs” value ([1]; 3 mg/kg p.o.) was 4/4, the “Time period until first vomiting (in hour;, mean ± SD)” value ([1]; 3 mg/kg p.o.) was 1.9 ± 0.1 h and the “Effect on cisplatin-induced vomiting (in words)” value ([1]; 10 mg/kg p.o.) was “almost completely suppressed”. The “Effect on the latency (in words)” value ([1]; 10 mg/kg p.o.) was “prolonged”, the “Suppression ratio of acute vomiting” value ([1]; 10 mg/kg p.o.) was 93 % b and the “Duration of vomiting (in hour;, mean ± SD)” value ([1]; 10 mg/kg p.o.) was 0.2 ± 0.2 a hour. The “Frequency of vomiting (mean ± SD)” value ([1]; 10 mg/kg p.o.) was 1.0 ± 0.7 a, the “Number of dogs with vomiting/number of tested dogs” value ([1]; 10 mg/kg p.o.) was 2/4 and the “Time period until first vomiting (in hour;, mean ± SD)” value ([1]; 10 mg/kg p.o.) was 3.6 ± 0.8 a hour. For the same compound, the “Effect on cisplatin-induced retching and actual vomiting (in words)” value [2] was “significantly suppressed”, the “Suppression ratio of acute retching” value [2] was 53 % b and the “Suppression ratio of acute vomiting” value [2] was 49 % a. The “Duration of retching (in minute, mean ± SD)” value ([2]; 5 hours) was 2.6 ± 0.3 min, the “Duration of vomiting (in minute, mean ± SD)” value ([2]; 5 hours) was 1.7 ± 0.3 b minute and the “Frequency of retching (mean ± SD)” value ([2]; 5 hours) was 57.5 ± 6.2 b. The “Frequency of vomiting (mean ± SD)” value ([2]; 5 hours) was 5.7 ± 1.0 a, the “Number of ferrets with retching /number of tested ferrets” value ([2]; 5 hours) was 6/6 and the “Number of ferrets with vomiting /number of tested ferrets” value ([2]; 5 hours) was 6/6. For the same compound, the “Time period until first retching (in minute, mean ± SD)” value ([2]; 5 hours) was 1.5 ± 0.1 min and the “Time period until first vomiting (in minute, mean ± SD)” value ([2]; 5 hours) was 1.8 ± 0.1 min.
